Patent US20230085307A1, “PYRIDAZINONE COMPOUND AND HERBICIDE” (NISSAN CHEMICAL CORPORATION, priority 2019, published 2023)

Key:
[1] = test system: late watergrass; assay: Test Example 1: herbicidal activity, application before weed generation under submerged conditions (Table 16, symbol A); type: in vivo, late watergrass (Echinochloa oryzicola); details: amount of applied herbicide 320 g/ha
Method in brief: (§1)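 Submerged Wagner pots (alluvial soil, 4 cm water) sown with weed seeds and planted with 2.5-leaf rice seedlings; emulsifiable concentrate diluted in water applied to water surface on sowing day. Held in greenhouse at 25-30 °C; injury scored 0-5 by herbicidal rate after three weeks.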

[2] = test system: Japanese bulrush; assay: Test Example 1: herbicidal activity, application before weed generation under submerged conditions (Table 16, symbol B); type: in vivo, Japanese bulrush (Schoenoplectus juncoides); details: amount of applied herbicide 320 g/ha
Method in brief: as §1

[3] = test system: oval-leafed pondweed; assay: Test Example 1: herbicidal activity, application before weed generation under submerged conditions (Table 16, symbol C); type: in vivo, oval-leafed pondweed (Monochoria vaginalis); details: amount of applied herbicide 320 g/ha
Method in brief: as §1

[4] = test system: barnyard grass; assay: Test Example 3: herbicidal effect by foliage application, Wagner pot (Table 18, symbol H); type: in vivo, barnyard grass (Echinochloa crus-galli); details: amount of applied herbicide 320 g/ha
Method in brief: (§2)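 Plants were sown in alluvial soil held under 0.1–0.5 cm standing water and grown 14 days in a greenhouse at 25–30 °C. An emulsifiable formulation, water-diluted to the set dose, was then sprayed onto the foliage, and effects were scored three weeks later using previously defined criteria.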

[5] = test system: Chinese sprangletop; assay: Test Example 3: herbicidal effect by foliage application, Wagner pot (Table 18, symbol D); type: in vivo, chinese sprangletop (Leptochloa chinensis); details: amount of applied herbicide 320 g/ha
Method in brief: as §2

[6] = test system: rice flat sedge; assay: Test Example 3: herbicidal effect by foliage application, Wagner pot (Table 18, symbol E); type: in vivo, rice flat sedge (Cyperus iria); details: amount of applied herbicide 320 g/ha
Method in brief: as §2

[7] = test system: southern crabgrass; assay: Test Example 4: herbicidal effect by soil treatment (Table 19, symbol F); type: in vivo, southern crabgrass (Digitaria ciliaris); details: amount of applied herbicide 320 g/ha
Method in brief: (§3)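 Herbicidal effect was rated 3 weeks after treatment, using the scoring criteria of an earlier test. The compound, formulated as an emulsion and diluted in water to a set herbicide amount, had been sprayed uniformly on soil over freshly sown seeds. Growth took place in a greenhouse at 25° C. to 30° C.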

[8] = test system: green foxtail; assay: Test Example 4: herbicidal effect by soil treatment (Table 19, symbol G); type: in vivo, green foxtail (Setaria viridis); details: amount of applied herbicide 320 g/ha
Method in brief: as §3

[9] = test system: barnyard grass; assay: Test Example 4: herbicidal effect by soil treatment (Table 19, symbol H); type: in vivo, barnyard grass (Echinochloa crus-galli); details: amount of applied herbicide 320 g/ha
Method in brief: as §3

[10] = test system: wild oat; assay: Test Example 4: herbicidal effect by soil treatment (Table 19, symbol I); type: in vivo, wild oat (Avena fatua); details: amount of applied herbicide 320 g/ha
Method in brief: as §3

[11] = test system: blackgrass; assay: Test Example 4: herbicidal effect by soil treatment (Table 19, symbol J); type: in vivo, blackgrass (Alopecurus myosuroides); details: amount of applied herbicide 320 g/ha
Method in brief: as §3

[12] = test system: Italian ryegrass; assay: Test Example 4: herbicidal effect by soil treatment (Table 19, symbol K); type: in vivo, Italian ryegrass (Lolium multiflorum); details: amount of applied herbicide 320 g/ha
Method in brief: as §3

[13] = test system: windgrass; assay: Test Example 4: herbicidal effect by soil treatment (Table 19, symbol L); type: in vivo, windgrass (Apera spica-venti); details: amount of applied herbicide 320 g/ha
Method in brief: as §3

[14] = test system: velvetleaf; assay: Test Example 4: herbicidal effect by soil treatment (Table 19, symbol M); type: in vivo, velvetleaf (Abutilon theophrasti); details: amount of applied herbicide 320 g/ha
Method in brief: as §3

[15] = test system: redroot pigweed; assay: Test Example 4: herbicidal effect by soil treatment (Table 19, symbol N); type: in vivo, redroot pigweed (Amaranthus retroflexus); details: amount of applied herbicide 320 g/ha
Method in brief: as §3

[16] = test system: lambsquarters; assay: Test Example 4: herbicidal effect by soil treatment (Table 19, symbol O); type: in vivo, lambsquarters (Chenopodium album); details: amount of applied herbicide 320 g/ha
Method in brief: as §3

[17] = test system: chickweed; assay: Test Example 4: herbicidal effect by soil treatment (Table 19, symbol P); type: in vivo, common chickweed (Stellaria media); details: amount of applied herbicide 320 g/ha
Method in brief: as §3

[18] = test system: persian speedwell; assay: Test Example 4: herbicidal effect by soil treatment (Table 19, symbol R); type: in vivo, Persian speedwell (Veronica persica); details: amount of applied herbicide 320 g/ha
Method in brief: as §3

[19] = test system: southern crabgrass; assay: Test Example 5: herbicidal effect by foliage application, plastic box (Table 20, symbol F); type: in vivo, southern crabgrass (Digitaria ciliaris); details: foliage application, AAH 320 g/ha, evaluated three weeks after application
Method in brief: (§4)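 Foliar spray test: emulsion formulation diluted in water to a set application rate, sprayed onto 14-day-old plants raised in diluvial soil at 25° C to 30° C under glass. Both herbicidal effect and crop effect rated visually three weeks later.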

[20] = test system: green foxtail; assay: Test Example 5: herbicidal effect by foliage application, plastic box (Table 20, symbol G); type: in vivo, green foxtail (Setaria viridis); details: foliage application, AAH 320 g/ha, evaluated three weeks after application
Method in brief: as §4

[21] = test system: barnyard grass; assay: Test Example 5: herbicidal effect by foliage application, plastic box (Table 20, symbol H); type: in vivo, barnyard grass (Echinochloa crus-galli); details: foliage application, AAH 320 g/ha, evaluated three weeks after application
Method in brief: as §4

[22] = test system: wild oat; assay: Test Example 5: herbicidal effect by foliage application, plastic box (Table 20, symbol I); type: in vivo, wild oat (Avena fatua); details: foliage application, AAH 320 g/ha, evaluated three weeks after application
Method in brief: as §4

[23] = test system: blackgrass; assay: Test Example 5: herbicidal effect by foliage application, plastic box (Table 20, symbol J); type: in vivo, blackgrass (Alopecurus myosuroides); details: foliage application, AAH 320 g/ha, evaluated three weeks after application
Method in brief: as §4

[24] = test system: Italian ryegrass; assay: Test Example 5: herbicidal effect by foliage application, plastic box (Table 20, symbol K); type: in vivo, Italian ryegrass (Lolium multiflorum); details: foliage application, AAH 320 g/ha, evaluated three weeks after application
Method in brief: as §4

[25] = test system: windgrass; assay: Test Example 5: herbicidal effect by foliage application, plastic box (Table 20, symbol L); type: in vivo, windgrass (Apera spica-venti); details: foliage application, AAH 320 g/ha, evaluated three weeks after application
Method in brief: as §4

[26] = test system: velvetleaf; assay: Test Example 5: herbicidal effect by foliage application, plastic box (Table 20, symbol M); type: in vivo, velvetleaf (Abutilon theophrasti); details: foliage application, AAH 320 g/ha, evaluated three weeks after application
Method in brief: as §4

[27] = test system: redroot pigweed; assay: Test Example 5: herbicidal effect by foliage application, plastic box (Table 20, symbol N); type: in vivo, redroot pigweed (Amaranthus retroflexus); details: foliage application, AAH 320 g/ha, evaluated three weeks after application
Method in brief: as §4

[28] = test system: lambsquarters; assay: Test Example 5: herbicidal effect by foliage application, plastic box (Table 20, symbol O); type: in vivo, lambsquarters (Chenopodium album); details: foliage application, AAH 320 g/ha, evaluated three weeks after application
Method in brief: as §4

[29] = test system: chickweed; assay: Test Example 5: herbicidal effect by foliage application, plastic box (Table 20, symbol P); type: in vivo, common chickweed (Stellaria media); details: foliage application, AAH 320 g/ha, evaluated three weeks after application
Method in brief: as §4

[30] = test system: persian speedwell; assay: Test Example 5: herbicidal effect by foliage application, plastic box (Table 20, symbol R); type: in vivo, Persian speedwell (Veronica persica); details: foliage application, AAH 320 g/ha, evaluated three weeks after application
Method in brief: as §4

Compound	Herbicidal effect, A: late watergrass [1]	Herbicidal effect, B: Japanese bulrush [2]	Herbicidal effect, C: oval-leafed pondweed [3]	herbicidal effect on H: barnyard grass [4]	herbicidal effect on D: Chinese sprangletop [5]	herbicidal effect on E: rice flat sedge [6]	herbicidal effect, F: southern crabgrass [7]	herbicidal effect, G: green foxtail [8]	herbicidal effect, H: barnyard grass [9]	herbicidal effect, I: wild oat [10]	herbicidal effect, J: blackgrass [11]	herbicidal effect, K: Italian ryegrass [12]	herbicidal effect, L: windgrass [13]	herbicidal effect, M: velvetleaf [14]	herbicidal effect, N: redroot pigweed [15]	herbicidal effect, O: lambsquarters [16]	herbicidal effect, P: chickweed [17]	herbicidal effect, R: persian speedwell [18]	F: southern crabgrass, herbicidal effect (criteria 0-5) [19]	G: green foxtail, herbicidal effect (criteria 0-5) [20]	other results
CSc1ccncc1-c1sc2ccc(F)cc2c1-c1c(O)c(C)nn(C)c1=O [2-389]	3 (Herbicidal rate of 40% or more and less than 70%)	0 (Herbicidal rate of 5% or less (almost no effect))	0 (Herbicidal rate of 5% or less (almost no effect))	5 (Herbicidal rate of 90% or more (almost completely withered))	3 (Herbicidal rate of 40% or more and less than 70%)	5 (Herbicidal rate of 90% or more (almost completely withered))	1 (Herbicidal rate of 5% or more and less than 20%)	3 (Herbicidal rate of 40% or more and less than 70%)	3 (Herbicidal rate of 40% or more and less than 70%)	1 (Herbicidal rate of 5% or more and less than 20%)	0 (Herbicidal rate of 5% or less (almost no effect))	3 (Herbicidal rate of 40% or more and less than 70%)	1 (Herbicidal rate of 5% or more and less than 20%)	3 (Herbicidal rate of 40% or more and less than 70%)	5 (Herbicidal rate of 90% or more (almost completely withered))	5 (Herbicidal rate of 90% or more (almost completely withered))	4 (Herbicidal rate of 70% or more and less than 90%)	5 (Herbicidal rate of 90% or more (almost completely withered))	5 (Herbicidal rate of 90% or more (almost completely withered))	5 (Herbicidal rate of 90% or more (almost completely withered))	H: barnyard grass, herbicidal effect (criteria 0-5) [21]: 5 (Herbicidal rate of 90% or more (almost completely withered)); I: wild oat, herbicidal effect (criteria 0-5) [22]: 4 (Herbicidal rate of 70% or more and less than 90%); J: blackgrass, herbicidal effect (criteria 0-5) [23]: 3 (Herbicidal rate of 40% or more and less than 70%); K: Italian ryegrass, herbicidal effect (criteria 0-5) [24]: 4 (Herbicidal rate of 70% or more and less than 90%); L: windgrass, herbicidal effect (criteria 0-5) [25]: 4 (Herbicidal rate of 70% or more and less than 90%); M: velvetleaf, herbicidal effect (criteria 0-5) [26]: 5 (Herbicidal rate of 90% or more (almost completely withered)); N: redroot pigweed, herbicidal effect (criteria 0-5) [27]: 5 (Herbicidal rate of 90% or more (almost completely withered)); O: lambsquarters, herbicidal effect (criteria 0-5) [28]: 5 (Herbicidal rate of 90% or more (almost completely withered)); P: chickweed, herbicidal effect (criteria 0-5) [29]: 5 (Herbicidal rate of 90% or more (almost completely withered)); R: persian speedwell, herbicidal effect (criteria 0-5) [30]: 5 (Herbicidal rate of 90% or more (almost completely withered))
Cc1nn(C)c(=O)c(-c2c(-c3ccc(Cl)s3)sc3ccc(F)cc23)c1O [2-390]	2 (Herbicidal rate of 20% or more and less than 40%)	0 (Herbicidal rate of 5% or less (almost no effect))	0 (Herbicidal rate of 5% or less (almost no effect))	5 (Herbicidal rate of 90% or more (almost completely withered))	3 (Herbicidal rate of 40% or more and less than 70%)	5 (Herbicidal rate of 90% or more (almost completely withered))	4 (Herbicidal rate of 70% or more and less than 90%)	5 (Herbicidal rate of 90% or more (almost completely withered))	5 (Herbicidal rate of 90% or more (almost completely withered))	1 (Herbicidal rate of 5% or more and less than 20%)	5 (Herbicidal rate of 90% or more (almost completely withered))	5 (Herbicidal rate of 90% or more (almost completely withered))	4 (Herbicidal rate of 70% or more and less than 90%)	3 (Herbicidal rate of 40% or more and less than 70%)	5 (Herbicidal rate of 90% or more (almost completely withered))	4 (Herbicidal rate of 70% or more and less than 90%)	4 (Herbicidal rate of 70% or more and less than 90%)	5 (Herbicidal rate of 90% or more (almost completely withered))	5 (Herbicidal rate of 90% or more (almost completely withered))	5 (Herbicidal rate of 90% or more (almost completely withered))	H: barnyard grass, herbicidal effect (criteria 0-5) [21]: 4 (Herbicidal rate of 70% or more and less than 90%); I: wild oat, herbicidal effect (criteria 0-5) [22]: 4 (Herbicidal rate of 70% or more and less than 90%); J: blackgrass, herbicidal effect (criteria 0-5) [23]: 4 (Herbicidal rate of 70% or more and less than 90%); K: Italian ryegrass, herbicidal effect (criteria 0-5) [24]: 5 (Herbicidal rate of 90% or more (almost completely withered)); L: windgrass, herbicidal effect (criteria 0-5) [25]: 5 (Herbicidal rate of 90% or more (almost completely withered)); M: velvetleaf, herbicidal effect (criteria 0-5) [26]: 5 (Herbicidal rate of 90% or more (almost completely withered)); N: redroot pigweed, herbicidal effect (criteria 0-5) [27]: 5 (Herbicidal rate of 90% or more (almost completely withered)); O: lambsquarters, herbicidal effect (criteria 0-5) [28]: 5 (Herbicidal rate of 90% or more (almost completely withered)); P: chickweed, herbicidal effect (criteria 0-5) [29]: 5 (Herbicidal rate of 90% or more (almost completely withered)); R: persian speedwell, herbicidal effect (criteria 0-5) [30]: 5 (Herbicidal rate of 90% or more (almost completely withered))
